Test results published in patent US4263299A, “Heterocyclic coumarin derivatives” (Beecham Group Limited, priority 1978, dated 1981).
Like-named read-outs stand apart in the source and are kept apart here.

How the values were obtained:
[1] = system: rat passive peritoneal anaphylaxis; assay: Rat passive peritoneal anaphylaxis (PPA); format: in vivo; conditions: mean ± SEM, 3-7 rats per group
From the text: (a) inhibit rat passive peritoneal anaphylaxis; and
(a) Rat passive peritoneal anaphylaxis (PPA)
The method has been described previously (Ross, Janet W., Smith, H. and Spicer, Barbara A. Increased vascular permeability during passive peritoneal anaphylaxis in the rat. Int. Arch. Allergy appl. Immun. 51, 226, 1976.)
Serum containing heat-labile homocytotropic antibody was raised in rats to ovalbumin by a method similar to that described by Mota, I. (The mechanism of anaphylaxis. I. Production and biological properties of mast cell sensitising antibody. Immunology, 7, 681; 1964). Male Wistar rats of 250-300 g were given intraperitoneal injections of 0.5 ml of Bordetella pertussis vaccine (4×10^10 organisms/ml; Burroughs Wellcome, London) and subcutaneous injections of 0.5 ml of an emulsion of 100 mg of ovalbumin in 2 ml of isotonic saline and 3 ml of Freund's incomplete adjuvant. The rats were bled by cardiac puncture on day 18, the blood was pooled and the serum separated, stored at -20° C. and thawed only once before use. The serum produced PCA activity in recipient rats down to a dilution of 1:32 to 1:64 after 72 hr and persisted for several days. This activity was lost to a dilution of 1:2 by heating at 56° for 4 hr even when the sensitising period was reduced to 4 hr.
Passive peritoneal anaphylaxis
Rats were given intraperitoneal injections of 2 ml of a 1:5 dilution of the rat anti-serum in isotonic saline. 2 hr later 0.3 ml of a 5% solution of Pontamine Sky Blue (Raymond A. Lamb, London) is isotonic saline was injected intravenously, followed by an intraperitoneal injection of the test compound in 1 ml of saline; (control rats received 1 ml of saline); followed 30 sec. later by an intraperitoneal injection of 5 ml of a Tyrode solution containing 50 μg/ml heparin and 0.4 mg/ml of ovalbumin. The concentrations of the compounds were quoted as those in the 6 ml of fluid injected intraperitoneally. Extractly 5 min. after challenge the rats were stunned and bled and their peritoneal fluids were collected by opening their peritoneal cavities over funnels into polycarbonate tubes in ice. The supernatants were separated from the cellular residue by centrifuging at 150 g for 5 min. and any samples obviously contaminated with blood were discarded and the remainder were retained for estimation of dye, histamine and SRS-A. Groups of at least 5 rats were used for each dose of compound and the treatments were randomized.
Assay of peritoneal fluids
Collected peritoneal fluids were immediately cooled to 0° C. and centrifuged and the supernatant fluids assayed for dye within 2 hr. 0.5-ml samples of the supernatants were added to 1 ml of 12% trichloracetic acid and stored at -20° C. and used to assay for histamine. The remainders of the supernatant fluids were placed in a boiling water bath for 5 min. and stored frozen at -20° C. until assayed for SRS-A.
The optical densities (OD) at 625 nm of the supernatants were determined. Samples were taken from supernatants with an OD greater than 2 and diluted in Tyrode's solution before reading.
Histamine was assayed using an automated spectrofluorimetric system (Technicon Autoanalyser) by a method similar to that of Evans, D. P., Lewis, J. A. and Thomson, D. S.: (An automated fluorimetric assay for the rapid determination of histamine in biological fluids. Life Sci. 12,327, 1973).
SRS-A was assayed on the isolated guinea pig ileum preparation in the presence of atropine (5×10^-7 M) and mepyramine maleate (10^-6 M), the latter to abolish the histamine response. (Brocklehurst, W. E. The release of histamine and formulation of a slow reacting substance (SRS-A) during anaphylactic shock. J. Physiol., Lond. 151, 416, 1960). Bulked peritoneal fluids from passively sensitised and challenged rats were centrifuged, heated, stored at -20° C. in 0.5 ml aliquots, and used as a reference SRS-A standard, and arbitrarily designated as containing 10 Units per ml. […]

[2] = target: T1, histamine (spasmogenic effects) on isolated guinea pig ileum (Cavia porcellus, UniProt P31389); assay: Anti-histamine activity in vitro on guinea pig ileum (pA2); conditions: for Kb: read-out: pA2 Mean ± SEM (antihistamine activity in vitro) (converted)
T1 construct: isolated guinea pig ileum; from tissue; host or cells: isolated guinea pig ileum
Description: (b) antagonise the spasmogenic effects of histamine on isolated guinea pig ileum.
(b) Measurement of anti-histamine activity in vitro on guinea pig ileum using the […]
The pA2 of the compound was determined in a similar manner to that described by Schild, H. O. (pA, A new scale for the measurement of drug antagonism. Brit. J. Pharmacol. 2, 189, 1947).

mice = assay: Acute intravenous toxicity in mice; format: in vivo, mouse
[3] = contact time 10.0 min, (part assay) for 4d

T1 sequence (P31389 whole entry): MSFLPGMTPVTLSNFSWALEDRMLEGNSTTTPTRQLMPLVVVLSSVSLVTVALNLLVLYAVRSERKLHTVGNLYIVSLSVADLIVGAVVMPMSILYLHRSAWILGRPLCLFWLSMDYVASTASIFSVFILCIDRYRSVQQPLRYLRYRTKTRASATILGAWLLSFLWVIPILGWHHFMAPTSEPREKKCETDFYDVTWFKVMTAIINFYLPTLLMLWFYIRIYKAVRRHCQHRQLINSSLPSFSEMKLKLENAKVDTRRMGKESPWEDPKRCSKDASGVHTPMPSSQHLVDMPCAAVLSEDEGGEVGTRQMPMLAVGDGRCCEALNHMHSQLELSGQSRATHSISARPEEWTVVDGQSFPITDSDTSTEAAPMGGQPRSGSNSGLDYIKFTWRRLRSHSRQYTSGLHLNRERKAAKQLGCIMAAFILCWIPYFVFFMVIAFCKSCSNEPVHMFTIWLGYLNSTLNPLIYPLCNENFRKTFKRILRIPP

Structure (SMILES) | Dye concentration in peritoneal fluid as % of that in control rats not given compound ([1]; 2 × 10^-5 M injected i.p.) [%] | Histamine concentration in peritoneal fluid as % of that in control rats not given compound ([1]; 2 × 10^-5 M injected i.p.) [%] | SRSA concentration in peritoneal fluid as % of that in control rats not given compound ([1]; 2 × 10^-5 M injected i.p.) [%] | Dye concentration in peritoneal fluid as % of that in control rats not given compound ([1]; 2 × 10^-6 M injected i.p.) [%] | Histamine concentration in peritoneal fluid as % of that in control rats not given compound ([1]; 2 × 10^-6 M injected i.p.) [%] | SRSA concentration in peritoneal fluid as % of that in control rats not given compound ([1]; 2 × 10^-6 M injected i.p.) [%] | Kb ([2]; contact time 0.5 min) [nM] | Kb ([2]; contact time 2.0 min) [nM] | pA2 Mean ± SEM (antihistamine activity in vitro) [2, 3] | Kb [2, 3] [nM] | Dye concentration in peritoneal fluid as % of that in control rats not given compound ([1]; 2 × 10^-4 M injected i.p.) [%] | Histamine concentration in peritoneal fluid as % of that in control rats not given compound ([1]; 2 × 10^-4 M injected i.p.) [%] | SRSA concentration in peritoneal fluid as % of that in control rats not given compound ([1]; 2 × 10^-4 M injected i.p.) [%] | other results
CCCc1c(OCC(O)CN2CCN(Cc3ccc(Cl)cc3)CC2)ccc2c(O)c([N+](=O)[O-])c(=O)oc12 (centres unmarked) [Example 3d, 1-(4-chlorobenzyl)-4-[2-hydroxy-3-(4-hydroxy-3-nitro-8-n-propylcoumarin-7-yloxy)propyl]piperazine] | 47 ± 6 | 15 ± 2 | 75 ± 9 | 79 ± 9 | 55 ± 9 | 81 ± 6 | 25.1 | 10 | 8.4 | – | – | – | – | –
O=c1oc2cc(OCC(O)CN3CCN(Cc4ccc(Cl)cc4)CC3)ccc2c(O)c1[N+](=O)[O-] (centres unmarked) [Example 2d, 1-(4-Chlorobenzyl)-4-[2-hydroxy-3-(4-hydroxy-3-nitrocoumarin-7-yloxy)propyl]piperazine] | 36 ± 4 | 13 ± 0.9 | 47 ± 11 | 46 ± 4 | 23 ± 1.0 | 65 ± 13 | 50.1 | 20 | 8.3 | – | – | – | – | –
O=c1oc2cc(OCCCN3CCN(Cc4ccc(Cl)cc4)CC3)ccc2c(O)c1[N+](=O)[O-] [Example 1f, 1-(4-Chlorobenzyl)-4-[3-(4-hydroxy-3-nitrocoumarin-7-yloxy)propyl]piperazine] | – | – | – | 32.1 ± 3.6 | 28.4 ± 3.4 | 62.5 ± 17.2 | 15.8 | 2.51 | – | 0.631 | – | – | – | Deaths in mice at the high dose (mice; mice, intravenous, 300 mg/kg, group of three): all animals died; Deaths in mice during four days (mice; mice, intravenous, 1, 3 and 10 mg/kg, three groups of ten): No deaths occurred; Deaths in mice at the two lower doses (mice; mouse, in vivo): none; Dye concentration in peritoneal fluid as % of that in control rats not given compound ([1]; 2 × 10^-7 M injected i.p.): 88.1 ± 8.3%; Histamine concentration in peritoneal fluid as % of that in control rats not given compound ([1]; 2 × 10^-7 M injected i.p.): 75.8 ± 7.5%; SRSA concentration in peritoneal fluid as % of that in control rats not given compound ([1]; 2 × 10^-7 M injected i.p.): 71.8 ± 14.8%; Dye concentration in peritoneal fluid as % of that in control rats not given compound ([1]; 2 × 10^-8 M injected i.p.): 100 ± 16.7%; Histamine concentration in peritoneal fluid as % of that in control rats not given compound ([1]; 2 × 10^-8 M injected i.p.): 99.6 ± 8.3%; SRSA concentration in peritoneal fluid as % of that in control rats not given compound ([1]; 2 × 10^-8 M injected i.p.): 100 ± 14.8%
O=c1oc2cc(OCCCN3CCN(Cc4ccccc4)CC3)ccc2c(O)c1[N+](=O)[O-] [Example 6d, 1-Benzyl-4-[3-(4-hydroxy-3-nitrocoumarin-7-yloxy)propyl]piperazine] | 91 ± 12 | 56 ± 8 | 86 ± 14 | – | – | – | 79.4 | 25.1 | 7.9 | – | 67 ± 10 | 12 ± 1.0 | 55 ± 5 | –
O=c1oc2cc(CN3CCN(Cc4ccc(Cl)cc4)CC3)ccc2c(O)c1[N+](=O)[O-] [Example 5e, 1-(4-Chlorobenzyl)-4-[(4-hydroxy-3-nitrocoumarin-7-yl)methyl]piperazine] | 88 ± 14 | 31 ± 2 | 67 ± 15 | 103 ± 13 | 93 ± 18 | 94 ± 10 | 2000 | 2000 | 5.6 | – | 28 ± 9 | 17 ± 3 | – | –
O=c1oc2cc(OCCN3CCN(Cc4ccc(Cl)cc4)CC3)ccc2c(O)c1[N+](=O)[O-] [Example 4d, 1-(4-Chlorobenzyl)-4-[2-(4-hydroxy-3-nitrocoumarin-7-yloxy)ethyl]piperazine] | 65 ± 11 | 39 ± 8 | 73 ± 7 | – | – | – | 63.1 | 50.1 | – | ~126 | 40 ± 7 | 11 ± 0.9 | 26 ± 6 | –
